# US20140212431A1, “PCSK9-BINDING POLYPEPTIDES AND METHODS OF USE” (Genentech, Inc., priority 2011, published 2014)
# What was measured:
# liver LDLR = assay: rescue of liver LDLR upon treatment with PCSK9 in a mouse model (immuno-blotting); assay type: in vivo; conditions: mice, 60 mg/kg i.v. 2 h before 30 μg PCSK9 i.v., liver after 1 h
# Experimental: Mice were injected with vehicle (V), EGF-Fc (WT) or EGF66-Fc (MUT) followed by a bolus injection of recombinant human PCSK9 (30 μg/mouse). Livers were collected after 1 h and LDLR quantified by immuno-blotting. Each lane represents the pooled liver samples of three mice. The band intensities were quantified, normalized to transferring receptor contents and expressed as fraction of the untreated group (=1.0).
# To determine whether increased affinity and cell efficacy could translate into improved therapeutic potential, we compared the effects of EGFwt-Fc and EGF66-Fc in rescuing liver LDLR upon treatment with PCSK9 in a mouse model. Eight weeks old male C57BL/6 mice were purchased from approved vendor and housed for 2 weeks before starting the experiment. […]
# Approximately 200 mg of each liver were homogenized in Extraction Buffer 1 supplemented with Protease Inhibitor Cocktail (ProteoExtract® Native Membrane Protein Extraction Kit, Cat. No. 444810, Calbiochem) using the TissueLyser (Qiagen) according to manufacturer's instructions. […] After 30 min of gentle agitation at 4° C., the samples were centrifuged and the supernatants containing the membrane proteins were quantified using the Bradford assay. […]
# Mice were first injected with vehicle, EGFwt-Fc and EGF66-Fc followed by a bolus of recombinant human PCSK9 (30 μg/mouse) and livers were collected and analyzed 1 h later. […]
# [1] = test system: PCSK9-mediated LDLR degradation; assay: LDLR degradation assay with HepG2 cells (FACS of cell surface LDLR); assay type: cell-based, human; conditions: HepG2, 15 μg/ml PCSK9, 4 h, highest concentration tested 20 μM
# Experimental: Values are the average ±SD of three independent experiments.
# HepG2 cells (ATCC; Manassas, Va.) were seeded into 48 well plates (Corning; Corning, N.Y.) at 1×10^5 cells per well in high glucose medium (DMEM, Gibco; Carlsbad, Calif.) containing 2 mM glutamine (Sigma), penicillin/streptomycin (Gibco) and 10% FBS (Sigma) and incubated overnight. Then the medium was changed to DMEM containing 10% lipoprotein deficient serum (LPDS, Intracel; Frederick, Md.). After 24 h, 15 μg/ml PCSK9 was mixed with serially diluted EGFwt-Fc and EGF66-Fc fusion proteins, added to the cells and incubated at 37° C. for 4 h. Cells were rinsed with PBS and detached using 2.5 mM EDTA (EMD; Gibbstown, N.J.). After centrifugation, the resuspended cells were incubated with 1:20 anti-LDLR antibody (Progen Biotechnik; Heidelberg, Germany) on ice for 15 min. The samples were then washed with PBS and incubated with 1:200 diluted goat anti mouse IgG Alexa Fluor® 488 (Invitrogen; Carlsbad, Calif.) on ice for 15 min. After two PBS washes cells were resuspended in PBS containing 10 μg/ml of propidium iodide and analyzed on a dual laser flow cytometer (FACScan, Becton Dickinson; Franklin Lakes, N.J.). Relative fluorescence units (RFUs) were used to quantify LDLR expression levels on the HepG2 cell surface. Cell surface LDLR levels were expressed as percent of LDLR levels measured in the absence of PCSK9 (=control).
# PCSK9 binding to LDLR = target: T1, PCSK9 binding to LDLR (Homo sapiens, UniProt Q8NBP7); assay: competition binding ELISA (biotinylated PCSK9 binding to coated rLDLR); conditions: Fc fusion protein; average ±SD of three experiments; read-out: IC50, inhibition of PCSK9 binding to LDLR
# T1 construct: His8 (C); biotin (chemical, Sulfo-NHS); host or cells: PCSK9: CHO cells, transient; LDLR extracellular domain purchased
# T1 sequence (Q8NBP7 153-692): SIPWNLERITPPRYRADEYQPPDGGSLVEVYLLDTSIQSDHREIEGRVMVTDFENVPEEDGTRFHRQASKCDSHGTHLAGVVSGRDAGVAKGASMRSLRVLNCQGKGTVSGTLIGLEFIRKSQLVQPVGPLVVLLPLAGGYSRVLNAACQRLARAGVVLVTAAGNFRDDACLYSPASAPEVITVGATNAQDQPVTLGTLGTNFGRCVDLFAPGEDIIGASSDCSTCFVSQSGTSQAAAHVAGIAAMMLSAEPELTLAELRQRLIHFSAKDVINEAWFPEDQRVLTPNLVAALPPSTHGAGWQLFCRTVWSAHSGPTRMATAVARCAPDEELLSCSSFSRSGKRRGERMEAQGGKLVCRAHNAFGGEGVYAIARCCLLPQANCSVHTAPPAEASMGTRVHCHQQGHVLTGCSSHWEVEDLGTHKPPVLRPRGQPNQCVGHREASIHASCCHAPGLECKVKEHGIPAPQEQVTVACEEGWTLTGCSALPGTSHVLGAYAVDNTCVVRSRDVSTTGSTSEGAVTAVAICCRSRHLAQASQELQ
# T1 sequence (Q8NBP7 31-152 partner limits assumed): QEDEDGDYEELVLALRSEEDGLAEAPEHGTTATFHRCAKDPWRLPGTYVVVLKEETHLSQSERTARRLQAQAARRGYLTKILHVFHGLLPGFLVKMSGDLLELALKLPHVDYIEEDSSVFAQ
# Experimental: The blocking activity of EGF peptides and EGF-Fc fusion proteins was determined by using a competition binding ELISA. Wells of 384 well MaxiSorp™ plates (Nalge Nunc International; Rochester, N.Y.) were coated overnight at 4° C. with 1 μg/mL of recombinant human LDLR extracellular domain (rLDLR) (R&D Systems; Minneapolis, Minn.) in coating buffer (50 mM sodium carbonate, pH 9.6). Then 0.5 μg/ml of biotinylated PCSK9 in assay buffer (25 mM HEPES, pH 7.2, 150 mM NaCl, 0.2 mM CaCl2, 0.1% BSA, 0.05% Tween®20) was mixed with an equal volume of serially diluted EGF peptides (0.017-6000 nM) or EGF-Fc (0.034-6000 nM) and incubated for 30 min. The solutions were added to rLDLR coated plates and incubated for 2 h. Bound biotinylated rPCSK9 was detected by sequential additions of streptavidin-horseradish peroxidase (GE Healthcare; Buckinghamshire, UK) and substrate 3, 3′, 5, 5′ tetramethyl benzidine (TMBE 1000, Moss; Pasadena, Md.). The mean absorbance values from duplicate wells were plotted as a function of antibody concentration and the data were fitted to a four parameter equation for each antibody using KaleidaGraph (Synergy Software; Reading, Pa.).
# PCSK9 = target: T2, PCSK9 (Homo sapiens, UniProt Q8NBP7); assay: spot phage ELISA of EGF(A)-displaying phage clones against biotinylated PCSK9; assay type: binding; conditions: compared to wild type
# T2 construct: His8 (C); made in house; host or cells: CHO cells, transient, pRK5 vector, purified from conditioned media
# T2 sequence (Q8NBP7 153-692): as the sequence (Q8NBP7 153-692) above
# Experimental: “s/n ratio” refers to signal:noise ratio, wherein “signal” is the spot phage ELISA signal detected against biotinylated PCSK9 captured by NeutrAvidin coated on the 384-well MaxiSorp™ plate; “noise” is the ELISA signal against NeutrAvidin alone.
# After four rounds of binding selection, individual phage clones were picked and inoculated into 450 μl 2YT media containing 50 μg/ml carbenecillin and M13-KO7 helper phage in 96-well blocks, which were grown at 37° C. for overnight. The supernatant was analyzed with spot phage ELISA as follows: Biotinylated PCSK9 was captured to NeutrAvidin-coated 384-well MaxiSorp™ immunoplates and phage supernatant diluted (1:3) with PBT buffer was added to the wells. The plates were washed and bound phage was detected with anti-M13-HRP followed by TMB substrate. In these assays, phage binding to NeutrAvidin alone was tested in parallel to assess background binding. Clones whose binding signals for PCSK9 were more than 4 times higher than to NeutrAvidin (background) were considered positive. Positive clones were subjected to DNA sequence analysis.
substance,measurement,setting,value
EGFwt-Fc: wild type EGF(A) domain of LDLR fused via linker GGGSGAAQVTNKTHT to Fc domain of human IgG1 [reference compound],"liver LDLR level rescued, % of control levels",liver LDLR,less than 50%
same,"LDLR surface levels, percent of control levels measured in the absence of PCSK9",[1],56%
"EGF52: EGF(A) variant: Asp299 to Ser, Asn301 to Leu, Asn309 to Arg or Lys, Asp310 to Lys; phage clone and synthetic peptide",IC50,PCSK9 binding to LDLR,700 ± 300 pM
EGF50: phage-displayed EGF(A) clone with single mutation at N309 to Arg,binding of phage-displayed clone to PCSK9 (in words),PCSK9,moderate increase of binding
